Test results published in patent EP0312283A2, “Di-or tripeptide renin inhibitors containing lactam conformational restrictions in ACHPA” (Merck & Co., Inc., priority 1987, dated 1989).

Tested on: human plasma renin
Experiment: In vitro inhibition of human plasma renin (Boger et al. assay)
Format: biochemical
Procedure: In vitro inhibition of human plasma renin was measured as described by Boger, et al., J. Med. Chem (1985) 28, 1779.
They were analyzed for purity by HPLC (30 minute gradient, 5% CH3CN-H2O to 95% CH3CN-H20 buffered with 0.1% H3PO4; C18 reverse phase column), and were analyzed for composition by C, H, and N combustion analysis. IC50 values were measured in vitro using the human plasma renin assay, as described by Boger et al. J. Med. Chem. (1985) 28, 1779.

**Q.** Which IC50 does the source give for “Boc-Phe-His-(ACHP-1-(2-Hydroxyethyl)-2-Pyrrolidinone [Example 3H]” here?
**A.** 7.7 nM
